Counter-ions that a name gives are not always drawn. Like-named read-outs stand apart in the source and are kept apart here.
Key:
[1] = target: T1, Human gelatinase-A (MMP-2) (Homo sapiens, UniProt P08253); assay: MMP inhibition, internal fluorescence quenching method (MCA peptide substrate); format: biochemical
T1 sequence (P08253 110-660): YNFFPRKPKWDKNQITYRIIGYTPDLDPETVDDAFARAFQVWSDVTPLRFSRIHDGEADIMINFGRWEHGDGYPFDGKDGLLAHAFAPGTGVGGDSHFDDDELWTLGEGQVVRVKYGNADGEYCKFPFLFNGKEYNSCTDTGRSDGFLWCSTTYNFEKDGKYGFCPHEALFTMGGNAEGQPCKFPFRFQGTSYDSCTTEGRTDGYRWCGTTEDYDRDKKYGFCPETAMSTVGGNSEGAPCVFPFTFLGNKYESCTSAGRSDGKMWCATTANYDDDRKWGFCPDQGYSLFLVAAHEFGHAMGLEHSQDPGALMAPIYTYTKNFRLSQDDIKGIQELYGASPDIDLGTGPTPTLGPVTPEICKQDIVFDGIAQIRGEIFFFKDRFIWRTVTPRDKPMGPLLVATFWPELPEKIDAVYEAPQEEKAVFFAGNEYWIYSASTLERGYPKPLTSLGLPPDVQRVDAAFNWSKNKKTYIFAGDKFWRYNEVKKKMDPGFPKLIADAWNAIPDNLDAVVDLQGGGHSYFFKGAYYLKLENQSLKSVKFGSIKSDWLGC
Procedure: (§1) The inhibitory activity of the compounds of the present invention was evaluated in vitro against one or more of the MMP enzymes (gelatinases, collagenases, stromelysins) using the internal fluorescence quenching method. The assay method is based on the hydrolysis of the MMP substrate, MCA-Pro-Leu-Gly-Leu-DPA-Ala—Arg-NH2 at 37° C. (see Knight, C. G. et al., FEBS Lett. 296:263-266, 1992). The enzymes cleave at the Gly-Leu bond removing the internally quenching DPA group. The release of the highly fluorescent peptide MCA-Pro-Leu was monitored with a LS50 Perkin Elmer fluorimeter equipped with a Peltier-thermostated cell holder using an excitation wavelength of 326 nm and an emission wavelenght of 398 nm. Slis were set at 14/14. Proper determination of steady-state rates of substrate cleavage required a preincubation at 37° C. of 15 minutes to allow for complete equilibration of the enzyme-inhibitor complex. […] Rates of substrate hydrolysis, expressed as fluorescence arbitrary units per minute, were calculated by least-square analysis of the steady-state linear progression curves. The steady-state rates were fitted to the Michaelis equation describing competitive inhibition; in particular, Ki,app were determined by fining the data to the tight-binding equation of Morrison (Biochem. Biophys. Acta, 185:269-286, 1969) by non-linear methods.
(§2) Human gelatinase-A (MMP-2) was obtained as penzyme (72 kDa) and was activated with 1 mM 4-aminophenylmercuric acetate for 30 min at 37° C. immediately prior to use. The inhibitor was diluted into the assay from a stock solution in 100% DMSO, and controls substituted an equal volume of DMSO so that the final DMSO concentration from inhibitor and substrate dilution in all assays was 1%. The concentration of MMP-2 was 19.2 picoM. For compounds of formula (I) where X is —OH, the assay buffer was 50 mM Tris/HCl pH 6.5 containing 150 mM NaCl, 10 mM CaCl2, 0.01 mM ZnCl2 and 0.05% Brij35 (Protocol A). Other conditions were as stated above.
The compounds of formula (I) where X is —NHOH were tested against MMP-2 and MMP-1 under the conditions stated above, but the assay solution was buffered at pH 7.4 (Protocol B).

[2] = target: T2, Human fibroblast collagenase (MMP-1) (Homo sapiens, UniProt P03956); assay: MMP inhibition, internal fluorescence quenching method (MCA peptide substrate); format: biochemical
T2 sequence (P03956 101-269): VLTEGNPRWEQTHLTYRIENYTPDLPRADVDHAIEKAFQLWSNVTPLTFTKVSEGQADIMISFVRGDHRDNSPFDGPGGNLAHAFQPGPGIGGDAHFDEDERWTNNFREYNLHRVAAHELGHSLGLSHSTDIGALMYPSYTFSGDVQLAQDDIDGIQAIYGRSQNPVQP
Procedure: as §1, §2
Assay conditions were the same as above, but enzyme concentration was 200 picoM.

[3] = Protocol A: Tris/HCl pH 6.5, 37° C., MMP-2 19.2 picoM, substrate 3 μM, carboxylic acids, read-out: MMP-2 Ki
[4] = Protocol A: pH 6.5, 37° C., enzyme 200 picoM, substrate 3 μM, carboxylic acids, read-out: MMP-1 Ki
[5] = Protocol B: pH 7.4, 37° C., hydroxamic acids (X is —NHOH), read-out: MMP-2 Ki (picoM)
[6] = Protocol B: pH 7.4, 37° C., hydroxamic acids (X is —NHOH), read-out: MMP-1 Ki (picoM)

| SMILES | Ki [1, 3] | Ki [2, 4] | other results |
| --- | --- | --- | --- |
| O=C(O)C(CSc1ccccc1)CS(=O)(=O)c1ccc(-c2ccc(Cl)cc2)cc1 (racemic) [Example 1, 3-[(4′-chloro[1,1′-biphenyl]-4-yl)sulfonyl]-2-[(phenylsulfanyl)methyl]propanoic acid] | 8.3 nM | – | melting point: 158 to 162 °C |
| O=C(O)C(CSc1ccccc1)CS(=O)(=O)c1ccc(-c2ccc(Cl)cc2)cc1 (single isomer, unassigned) [3, Isomer 2] | 660 nM | – | – |
| CN1C(=O)N(CC(CS(=O)(=O)c2ccc(-c3ccc(Cl)cc3)cc2)C(=O)O)C(=O)C1(C)C (single isomer, unassigned) [6, Isomer 2] | 50 nM | – | – |
| O=C(NO)C(CSc1ccccc1)CS(=O)(=O)c1ccc(-c2ccc(Cl)cc2)cc1 (stereo not shown) [Example 4, 3-[(4′-chloro[1,1′-biphenyl]-4-yl)sulfonyl]-N-hydroxy-2-[(phenylsulfanyl)methyl]propanamide] | – | – | Ki [1, 5]: 0.159 nM; Ki [2, 6]: 149 nM |
| CN1C(=O)N(CC(CS(=O)(=O)c2ccc(-c3ccccc3)cc2)C(=O)O)C(=O)C1(C)C (stereo not shown) [Example 7] | 42 nM | – | melting point: > 200 °C (dec.) |
| CN1C(=O)N(CC(CS(=O)(=O)c2ccc(-c3ccc(Cl)cc3)cc2)C(=O)NO)C(=O)C1(C)C (stereo not shown) [Example 8, 3-[(4′-chloro[1,1′-biphenyl]-4-yl)sulfonyl]-N-hydroxy-2-[(3,4,4-trimethyl-2,5-dioxo-1-imidazolidinyl)methyl]propanamide] | – | – | Ki [1, 5]: 0.107 nM; Ki [2, 6]: 26.8 nM |
| CC1(C)NC(=O)N(CC(CS(=O)(=O)c2ccc(-c3ccc(Cl)cc3)cc2)C(=O)NO)C1=O (stereo not shown) [Example 10, 3-[(4′-chloro[1,1′-biphenyl]-4-yl)sulfonyl]-N-hydroxy-2-[(4,4-dimethyl-2,5-dioxo-1-imidazolidinyl)methyl]propanamide] | – | – | Ki [1, 5]: 0.05 nM; Ki [2, 6]: 12.6 nM |
| CCCCN1CC(=O)N(CC(CS(=O)(=O)c2ccc(-c3ccc(Cl)cc3)cc2)C(=O)O)C1=O (stereo not shown) [Example 13] | 12 nM | 5290 nM | – |
| O=C(Nc1ccc(S(=O)(=O)CC(CSc2cccs2)C(=O)O)cc1)c1ccccc1 (stereo not shown) [Example 14, 3-[[4-(Benzoylamino)phenyl]sulfonyl]-2-[(2-thienylsulfanyl)methyl]propanoic acid] | 8 nM | – | – |
| O=C(O)C(CSc1ccc(O)cc1)CS(=O)(=O)c1ccc(-c2ccc(Cl)cc2)cc1 (stereo not shown) [Example 16, 3-[(4′-chloro[1,1′-biphenyl]-4-yl)sulfonyl]-2-[[(4-hydroxyphenyl)sulfanyl]methyl]propanoic acid] | 9 nM | 9700 nM | – |
| O=C(O)C(COc1ccccc1)CS(=O)(=O)c1ccc(-c2ccc(Cl)cc2)cc1 (stereo not shown) [Example 17, 3-[(4′-Chloro[1,1′-biphenyl]-4-yl)sulfonyl]-2-(phenoxymethyl)propanoic acid, sodium salt] | 9.2 nM | 14700 nM | – |
| N#Cc1ccc(-c2ccc(S(=O)(=O)CC(CSc3ccccc3)C(=O)O)cc2)cc1 (stereo not shown) [Example 19, 3-[(4′-cyano[1,1′-biphenyl]-4-yl)sulfonyl]-2-[(phenylsulfanyl)methyl]propanoic acid] | 17 nM | – | – |
| Cn1ccnc1SCC(CS(=O)(=O)c1ccc(-c2ccc(Cl)cc2)cc1)C(=O)O (stereo not shown) [Example 25, 3-[(4′-chloro[1,1′-biphenyl]-4-yl)sulfonyl]-2-[[(1-methyl-1H-imidazol-2-yl)sulfanyl]methyl]propanoic acid] | 16 nM | – | – |
| N#Cc1ccc(-c2ccc(S(=O)(=O)CC(COc3ccccc3)C(=O)O)cc2)cc1 (stereo not shown) [Example 29, 3-[(4′-cyano[1,1′-biphenyl]-4-yl)sulfonyl]-2-(phenoxymethyl)propanoic acid, sodium salt] | 21.5 nM | – | – |
| CC(=O)Nc1ccc(OCC(CS(=O)(=O)c2ccc(-c3ccc(Cl)cc3)cc2)C(=O)O)cc1 (stereo not shown) [Example 30, 3-[(4′-chloro[1,1′-biphenyl]-4-yl)sulfonyl]-2-[(4-acetylaminophenoxy)methyl]propanoic acid] | 46 nM | 19600 nM | – |
| O=C(O)C(COc1ccccc1CO)CS(=O)(=O)c1ccc(-c2ccc(Cl)cc2)cc1 (stereo not shown) [Example 33, 3-[(4′-chloro[1,1′-biphenyl]-4-yl)sulfonyl]-2-[[2-(hydroxymethyl)phenoxy]-methyl]propanoic acid] | 15 nM | – | – |
| Cc1nnc(SCC(CS(=O)(=O)c2ccc(-c3ccc(Cl)cc3)cc2)C(=O)O)s1 (stereo not shown) [Example 36, 3-[(4′-chloro[1,1′-biphenyl]-4-yl)sulfonyl]-2-[[(S-methyl-1,3,4-thiadiazol-2-yl)sulfanyl]methyl]propanoic acid.] | 33.4 nM | – | – |
| O=C(O)C(CSc1nc2ccccc2[nH]1)CS(=O)(=O)c1ccc(-c2ccc(Cl)cc2)cc1 (stereo not shown) [Example 37, 3-[(4′-chloro[1,1′-biphenyl]-4-yl)sulfonyl]-2-[(1H-benzimidazol-2-yl-sulfanyl)methyl]-propanoic acid] | 18.2 nM | – | – |

The remaining compounds from weak to strong by Ki [1, 3], led by results:

| Ki [1, 3] | Ki [2, 4] | SMILES | other results |
| --- | --- | --- | --- |
| 7.8 nM | – | CCCCN1C(=O)CN(CC(CS(=O)(=O)c2ccc(-c3ccc(Cl)cc3)cc2)C(=O)O)C1=O (stereo not shown) [Example 18, 3-[(4′-chloro[1,1′-biphenyl]-4-yl)sulfonyl]-2-[(3-butyl-2,4-dioxo-1-imidazolidinyl)methyl]propanoic acid] | – |
| 7 nM | 81100 nM | O=C(Nc1ccc(S(=O)(=O)CC(CSc2ccccc2)C(=O)O)cc1)c1ccccc1 (stereo not shown) [Example 15, 3-[[4-(Benzoylamino)phenyl]sulfonyl]-2-[(phenylsulfanyl)methyl]propanoic acid] | – |
| 6 nM | – | O=C(O)C(CSc1ccccc1)CS(=O)(=O)c1ccc(-c2ccc(Cl)cc2)cc1 (single isomer, unassigned) [3, Isomer 1] | – |
| 5.5 nM | > 2000 nM | CN1C(=O)N(CC(CS(=O)(=O)c2ccc(-c3ccc(Cl)cc3)cc2)C(=O)O)C(=O)C1(C)C (racemic) [Example 5, 3-[(4′-chloro[1,1′-biphenyl]-4-yl)sulfonyl]-2-[(3,4,4-trimethyl-2,5-dioxo-1-imidazolidinyl)methyl]propanoic acid] | – |
| 4.8 nM | 67500 nM | N#Cc1ccc(C(=O)Nc2ccc(S(=O)(=O)CC(COc3ccccc3)C(=O)O)cc2)cc1 (stereo not shown) [Example 35, 3-[[4-[(4-cyanobenzoyl)amino]phenyl]sulfonyl]-2-(phenoxymethyl)propanoic acid] | – |
| 3.9 nM | 6290 nM | O=C(O)C(CSc1ccccn1)CS(=O)(=O)c1ccc(-c2ccc(Cl)cc2)cc1 (stereo not shown) [Example 20, 3-[(4′-chloro[1,1′-biphenyl]-4-yl)sulfonyl]-2-[(2-pyridinylsulfanyl)methyl]propanoic acid] | – |
| 3.7 nM | 3600 nM | CN1C(=O)N(CC(CS(=O)(=O)c2ccc(-c3ccc(Cl)cc3)cc2)C(=O)O)C(=O)C1(C)C (single isomer, unassigned) [6, Isomer 1] | – |
| 2.4 nM | 54000 nM | O=C(Nc1ccc(S(=O)(=O)CC(COc2ccccc2)C(=O)O)cc1)c1ccc(Cl)cc1 (stereo not shown) [Example 34, 3-[[4-[(4-chlorobenzoyl)amino]phenyl]sulfonyl]-2-(phenoxymethyl)propanoic acid] | – |
| 1.4 nM | 50600 nM | O=C(Nc1ccc(S(=O)(=O)CC(CSc2ccccc2)C(=O)O)cc1)c1ccc(Cl)cc1 (stereo not shown) [Example 21, 3-[[4-[(4-chlorobenzoyl)amino]phenyl]sulfonyl]-2-[(phenylsulfanyl)methyl]-propanoic acid] | – |

— patent US6765003B1, “3-Arylsulfonyl-2 (substituted methyl) propanoic acid derivatives as matrix metalloproteinase inhibitors” (Pharmacia Italia, SpA, priority 1999, dated 2004)
